Results published in PMC9030254, “Target Hopping from Protein Kinases to PXR: Identification of Small-Molecule Protein Kinase Inhibitors as Selective Modulators of Pregnane X Receptor from TüKIC Library” (Cells, 2022).

Experiments:
Test in all cases: Kinase profiling
Format in all cases: biochemical
[1] = target: T1, CDK6/CycD1 (Homo sapiens, UniProt Q00534)
T1 construct: purchased ProQinase (Freiburg, Germany)
Experimental: (§1) The analysis was performed by ProQinase (Freiburg, Germany).

[2] = target: T2, DYRK3 (Homo sapiens, UniProt O43781)
T2 construct: purchased ProQinase (Freiburg, Germany)
T2 sequence (O43781 1-588): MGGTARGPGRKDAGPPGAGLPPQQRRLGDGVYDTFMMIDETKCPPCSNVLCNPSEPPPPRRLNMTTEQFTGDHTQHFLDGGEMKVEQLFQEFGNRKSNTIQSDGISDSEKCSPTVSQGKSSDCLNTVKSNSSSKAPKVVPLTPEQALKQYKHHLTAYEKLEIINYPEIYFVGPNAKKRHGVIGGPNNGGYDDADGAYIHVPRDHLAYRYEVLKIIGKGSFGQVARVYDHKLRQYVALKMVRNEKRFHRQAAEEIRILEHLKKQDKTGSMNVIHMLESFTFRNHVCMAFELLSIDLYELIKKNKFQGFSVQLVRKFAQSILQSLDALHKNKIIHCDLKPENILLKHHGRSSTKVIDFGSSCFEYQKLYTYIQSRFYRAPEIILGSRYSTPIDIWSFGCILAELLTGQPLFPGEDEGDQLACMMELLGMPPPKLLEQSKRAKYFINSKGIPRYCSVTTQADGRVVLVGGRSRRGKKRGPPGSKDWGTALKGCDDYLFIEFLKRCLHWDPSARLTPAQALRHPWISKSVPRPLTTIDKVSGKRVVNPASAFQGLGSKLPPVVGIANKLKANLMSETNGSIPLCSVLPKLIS
Experimental: as §1

[3] = target: T3, EPHB3 (Homo sapiens, UniProt P54753)
T3 construct: purchased ProQinase (Freiburg, Germany)
T3 sequence (P54753 34-998): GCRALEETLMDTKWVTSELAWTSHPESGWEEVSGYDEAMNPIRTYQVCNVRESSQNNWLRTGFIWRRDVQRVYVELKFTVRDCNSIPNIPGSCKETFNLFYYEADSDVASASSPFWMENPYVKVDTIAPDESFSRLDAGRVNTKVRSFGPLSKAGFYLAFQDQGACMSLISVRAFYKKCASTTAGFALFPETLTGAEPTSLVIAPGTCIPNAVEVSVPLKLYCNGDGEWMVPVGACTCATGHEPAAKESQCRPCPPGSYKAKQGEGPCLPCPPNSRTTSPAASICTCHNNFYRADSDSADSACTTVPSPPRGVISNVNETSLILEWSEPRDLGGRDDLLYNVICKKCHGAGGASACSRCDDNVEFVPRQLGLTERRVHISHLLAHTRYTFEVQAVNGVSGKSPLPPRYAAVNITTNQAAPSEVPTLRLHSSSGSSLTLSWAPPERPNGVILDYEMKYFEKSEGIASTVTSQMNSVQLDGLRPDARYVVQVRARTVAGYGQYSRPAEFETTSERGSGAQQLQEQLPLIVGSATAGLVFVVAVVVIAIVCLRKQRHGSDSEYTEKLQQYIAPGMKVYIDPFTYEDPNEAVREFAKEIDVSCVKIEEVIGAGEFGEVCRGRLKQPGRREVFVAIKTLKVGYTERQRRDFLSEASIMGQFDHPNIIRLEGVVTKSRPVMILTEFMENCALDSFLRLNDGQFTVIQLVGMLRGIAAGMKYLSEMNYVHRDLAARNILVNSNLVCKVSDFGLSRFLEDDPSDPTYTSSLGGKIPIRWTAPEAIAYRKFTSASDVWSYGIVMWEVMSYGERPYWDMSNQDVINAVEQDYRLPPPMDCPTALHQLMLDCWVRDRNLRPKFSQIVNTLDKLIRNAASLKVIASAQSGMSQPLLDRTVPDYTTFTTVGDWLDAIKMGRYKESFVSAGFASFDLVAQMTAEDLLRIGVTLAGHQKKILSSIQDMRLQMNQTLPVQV
Experimental: as §1

[4] = target: T4, GRK2 (Homo sapiens, UniProt P25098)
T4 construct: purchased ProQinase (Freiburg, Germany)
T4 sequence (P25098 1-689): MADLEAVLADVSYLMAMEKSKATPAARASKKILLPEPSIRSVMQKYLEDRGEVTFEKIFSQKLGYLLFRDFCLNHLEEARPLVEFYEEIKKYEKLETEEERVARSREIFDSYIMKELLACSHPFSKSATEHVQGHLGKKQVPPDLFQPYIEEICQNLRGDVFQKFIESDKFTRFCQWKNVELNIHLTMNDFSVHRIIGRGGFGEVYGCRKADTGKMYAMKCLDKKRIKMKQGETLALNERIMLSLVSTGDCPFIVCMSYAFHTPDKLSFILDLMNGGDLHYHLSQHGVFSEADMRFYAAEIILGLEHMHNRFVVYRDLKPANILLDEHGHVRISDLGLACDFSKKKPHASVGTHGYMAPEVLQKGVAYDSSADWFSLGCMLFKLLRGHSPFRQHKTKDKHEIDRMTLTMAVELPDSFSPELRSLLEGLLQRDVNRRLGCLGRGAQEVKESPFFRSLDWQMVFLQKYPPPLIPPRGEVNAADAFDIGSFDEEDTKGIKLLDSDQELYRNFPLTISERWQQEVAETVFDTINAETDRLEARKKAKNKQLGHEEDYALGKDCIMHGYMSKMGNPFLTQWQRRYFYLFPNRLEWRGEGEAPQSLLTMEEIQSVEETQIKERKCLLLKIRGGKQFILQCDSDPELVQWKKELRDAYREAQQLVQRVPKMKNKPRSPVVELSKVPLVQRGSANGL
Experimental: as §1

[5] = target: T5, PAK6 (Homo sapiens, UniProt Q9NQU5)
T5 construct: purchased ProQinase (Freiburg, Germany)
T5 sequence (Q9NQU5 whole entry): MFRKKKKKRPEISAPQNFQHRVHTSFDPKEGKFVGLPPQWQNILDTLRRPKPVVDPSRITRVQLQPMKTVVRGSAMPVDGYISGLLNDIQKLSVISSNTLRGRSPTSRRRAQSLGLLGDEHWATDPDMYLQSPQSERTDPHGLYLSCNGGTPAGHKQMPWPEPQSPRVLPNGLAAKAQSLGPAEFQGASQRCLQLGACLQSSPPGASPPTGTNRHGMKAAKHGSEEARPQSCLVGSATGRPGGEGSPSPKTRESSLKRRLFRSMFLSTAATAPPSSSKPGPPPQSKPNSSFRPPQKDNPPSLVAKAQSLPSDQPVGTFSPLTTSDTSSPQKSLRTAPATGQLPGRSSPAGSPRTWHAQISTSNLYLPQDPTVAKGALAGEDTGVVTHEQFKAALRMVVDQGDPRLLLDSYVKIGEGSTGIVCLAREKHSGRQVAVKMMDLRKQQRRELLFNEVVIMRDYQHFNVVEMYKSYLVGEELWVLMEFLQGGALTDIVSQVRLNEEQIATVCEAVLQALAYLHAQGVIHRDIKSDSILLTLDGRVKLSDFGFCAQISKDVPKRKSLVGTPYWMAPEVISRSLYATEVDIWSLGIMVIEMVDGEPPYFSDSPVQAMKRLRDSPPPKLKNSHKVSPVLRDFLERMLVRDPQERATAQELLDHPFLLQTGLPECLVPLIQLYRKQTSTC
Experimental: as §1

[6] = target: T6, PLK1 (Homo sapiens, UniProt P53350)
T6 construct: purchased ProQinase (Freiburg, Germany)
T6 sequence (P53350 whole entry): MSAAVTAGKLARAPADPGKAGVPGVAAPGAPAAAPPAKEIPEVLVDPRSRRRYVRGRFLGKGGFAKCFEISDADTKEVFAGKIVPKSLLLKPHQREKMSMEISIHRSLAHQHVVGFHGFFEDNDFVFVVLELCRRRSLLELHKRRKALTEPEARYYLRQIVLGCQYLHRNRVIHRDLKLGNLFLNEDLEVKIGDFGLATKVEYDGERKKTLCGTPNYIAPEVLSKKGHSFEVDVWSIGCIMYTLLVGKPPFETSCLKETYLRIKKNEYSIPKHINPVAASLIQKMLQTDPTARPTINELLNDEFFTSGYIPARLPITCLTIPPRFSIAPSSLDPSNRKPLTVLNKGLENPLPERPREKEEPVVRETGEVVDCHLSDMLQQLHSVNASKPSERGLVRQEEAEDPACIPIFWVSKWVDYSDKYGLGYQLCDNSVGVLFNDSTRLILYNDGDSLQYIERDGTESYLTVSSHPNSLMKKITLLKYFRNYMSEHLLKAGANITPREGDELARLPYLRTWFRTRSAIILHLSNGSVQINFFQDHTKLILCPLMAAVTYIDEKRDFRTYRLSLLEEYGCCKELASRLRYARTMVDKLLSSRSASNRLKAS
Experimental: as §1

[7] = target: T7, SGK1 (Homo sapiens, UniProt O00141)
T7 construct: purchased ProQinase (Freiburg, Germany)
T7 sequence (O00141 1-431): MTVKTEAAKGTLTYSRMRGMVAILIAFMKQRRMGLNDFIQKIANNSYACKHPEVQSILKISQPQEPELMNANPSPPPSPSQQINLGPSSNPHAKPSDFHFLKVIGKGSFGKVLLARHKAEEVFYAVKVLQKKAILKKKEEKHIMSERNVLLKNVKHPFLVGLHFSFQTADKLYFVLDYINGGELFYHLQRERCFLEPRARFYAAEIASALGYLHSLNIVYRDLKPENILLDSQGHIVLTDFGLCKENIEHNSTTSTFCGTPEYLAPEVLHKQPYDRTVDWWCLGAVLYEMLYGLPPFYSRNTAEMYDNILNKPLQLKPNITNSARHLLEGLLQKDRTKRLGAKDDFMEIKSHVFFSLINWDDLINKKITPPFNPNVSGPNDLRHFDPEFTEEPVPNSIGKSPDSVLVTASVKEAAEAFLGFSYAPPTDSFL
Experimental: as §1

T1 sequence (Q00534 whole entry): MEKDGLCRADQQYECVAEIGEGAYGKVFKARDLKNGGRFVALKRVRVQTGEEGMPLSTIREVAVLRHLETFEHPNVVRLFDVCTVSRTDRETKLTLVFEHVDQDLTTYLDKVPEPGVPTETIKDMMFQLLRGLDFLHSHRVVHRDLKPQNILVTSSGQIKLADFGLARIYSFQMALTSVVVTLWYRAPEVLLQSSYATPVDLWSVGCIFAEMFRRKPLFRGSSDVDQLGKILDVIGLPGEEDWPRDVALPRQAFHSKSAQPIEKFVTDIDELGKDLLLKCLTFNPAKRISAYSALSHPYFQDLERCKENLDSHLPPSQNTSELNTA
T1 sequence (P24385 whole entry partner): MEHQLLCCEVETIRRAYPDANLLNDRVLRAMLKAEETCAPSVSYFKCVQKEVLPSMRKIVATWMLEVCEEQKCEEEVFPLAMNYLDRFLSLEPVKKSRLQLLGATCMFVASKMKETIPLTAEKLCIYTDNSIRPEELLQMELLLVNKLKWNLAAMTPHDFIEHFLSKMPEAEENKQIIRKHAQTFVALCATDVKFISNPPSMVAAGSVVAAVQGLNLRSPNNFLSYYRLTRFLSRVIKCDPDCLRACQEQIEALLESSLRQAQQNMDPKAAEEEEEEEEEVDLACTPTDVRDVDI

## O=C(Cc1ccccc1)Nc1ccc(F)c(Nc2ccc3c(c2)CCCCC3=O)c1 [Compound 100]
[1]; 1.0E-05 M
  Residual activity: 89 % of control
[1]; 1.0E-06 M
  Residual activity: 93 % of control
[2]; 1.0E-05 M
  Residual activity: 104 % of control
[2]; 1.0E-06 M
  Residual activity: 98 % of control
[3]; 1.0E-05 M
  Residual activity: 69 % of control
[3]; 1.0E-06 M
  Residual activity: 100 % of control
[4]; 1.0E-05 M
  Residual activity: 97 % of control
[4]; 1.0E-06 M
  Residual activity: 97 % of control
[5]; 1.0E-05 M
  Residual activity: 98 % of control
[5]; 1.0E-06 M
  Residual activity: 101 % of control
[6]; 1.0E-05 M
  Residual activity: 90 % of control
[6]; 1.0E-06 M
  Residual activity: 103 % of control
[7]; 1.0E-05 M
  Residual activity: 85 % of control
[7]; 1.0E-06 M
  Residual activity: 108 % of control

## O=C(Nc1ccc(F)c(Nc2ccc3c(c2)CCCCC3=O)c1)c1cccc(F)c1 [Compound 109]
[1]; 1.0E-05 M
  Residual activity: 90 % of control
[1]; 1.0E-06 M
  Residual activity: 84 % of control
[2]; 1.0E-05 M
  Residual activity: 88 % of control
[2]; 1.0E-06 M
  Residual activity: 96 % of control
[3]; 1.0E-05 M
  Residual activity: 85 % of control
[3]; 1.0E-06 M
  Residual activity: 100 % of control
[4]; 1.0E-05 M
  Residual activity: 88 % of control
[4]; 1.0E-06 M
  Residual activity: 84 % of control
[5]; 1.0E-05 M
  Residual activity: 90 % of control
[5]; 1.0E-06 M
  Residual activity: 99 % of control
[6]; 1.0E-05 M
  Residual activity: 96 % of control
[6]; 1.0E-06 M
  Residual activity: 94 % of control
[7]; 1.0E-05 M
  Residual activity: 97 % of control
[7]; 1.0E-06 M
  Residual activity: 99 % of control
